Measurements taken from publication PMC4375495 (The Journal of Biological Chemistry, 2015).

How the values were obtained:
PI3Kδ-p85α = PI3Kδ-p85α (Mus musculus, UniProt O35904); experiment: Reversibility (dilution) assay; type: biochemical, murine; settings: preincubation 1 h with 400 nM idelalisib or 100 nM wortmannin; 10 μM PIP2, 300 μM ATP
Protocol: One microliter of solution was transferred to 99 μl of reaction buffer solution containing 10 μM PIP2 and 300 μM ATP to initiate the enzyme reaction. At 5-min intervals, samples from each reaction were quenched with HTRF stop solution, and fluorescence was measured using the detection kit as described above. The reactions were measured over a time frame of 40 min. […] The data were analyzed with linear least square fits to obtain reaction rates.

ΔABD-p110δ = target: T1, ΔABD-p110δ (Mus musculus, UniProt O35904); experiment: Surface plasmon resonance binding assay (Biacore); design: species or system murine; settings: for dissociation from the protein during the dissociation phase: idelalisib 0.12-30 nM, wortmannin 2 μM, 1-hour dissociation phase
T1 construct: digested with the rTEV protease to remove the iSH2 and ABD domains; made in house
T1 sequence (O35904 106-1043 limits assumed): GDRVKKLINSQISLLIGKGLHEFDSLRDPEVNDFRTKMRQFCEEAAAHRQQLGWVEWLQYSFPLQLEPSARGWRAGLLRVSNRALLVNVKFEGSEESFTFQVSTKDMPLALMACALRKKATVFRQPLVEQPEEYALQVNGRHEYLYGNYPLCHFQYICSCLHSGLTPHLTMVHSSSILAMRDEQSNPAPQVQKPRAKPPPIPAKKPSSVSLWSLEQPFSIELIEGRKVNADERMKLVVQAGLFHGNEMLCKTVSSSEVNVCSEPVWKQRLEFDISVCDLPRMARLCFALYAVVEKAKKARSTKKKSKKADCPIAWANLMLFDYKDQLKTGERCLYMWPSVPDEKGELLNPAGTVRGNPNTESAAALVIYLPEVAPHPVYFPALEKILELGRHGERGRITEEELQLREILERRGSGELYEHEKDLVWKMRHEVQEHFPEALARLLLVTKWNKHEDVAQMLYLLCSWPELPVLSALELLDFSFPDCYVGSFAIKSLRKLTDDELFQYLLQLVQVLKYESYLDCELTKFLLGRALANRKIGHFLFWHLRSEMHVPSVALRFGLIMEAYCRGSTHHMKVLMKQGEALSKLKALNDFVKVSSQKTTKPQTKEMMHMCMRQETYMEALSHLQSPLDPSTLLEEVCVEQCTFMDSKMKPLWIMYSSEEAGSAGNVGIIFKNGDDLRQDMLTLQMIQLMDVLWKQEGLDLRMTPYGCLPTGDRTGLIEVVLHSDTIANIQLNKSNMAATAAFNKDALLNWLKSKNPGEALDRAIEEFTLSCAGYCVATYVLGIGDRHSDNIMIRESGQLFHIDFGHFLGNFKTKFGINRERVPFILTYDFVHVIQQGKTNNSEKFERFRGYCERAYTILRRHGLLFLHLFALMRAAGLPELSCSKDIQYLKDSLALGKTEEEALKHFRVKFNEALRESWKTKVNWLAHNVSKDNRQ
Protocol: ΔABD-p110δ was minimally biotinylated using a 1:1 molar ratio of protein to EZ-link sulfo-NHS-LC-LC-biotin (ThermoScientific; catalog no. 21338). […] Following incubation for 1 h at 4 °C, the mixture was desalted using a Zeba spin desalting column (ThermoScientific; catalog no. 89883) pre-equilibrated in Biacore running buffer (25 mM HEPES, pH 7.5, 150 mM NaCl, 5 mM MgCl2, 1 mM TCEP, 5% glycerol, 0.05% P20) to remove any unreacted biotin. […] Characterization of inhibitor binding and dissociation was performed using a Biacore T100 instrument and research grade series S CM5 sensor chips (GE Healthcare; catalog no. BR-1005-30). Before use, CM5 sensor chips were preconditioned using two 6-s pulses each of 100 mM HCl, 50 mM NaOH, 0.5% (w/v) SDS, and deionized H2O at a flow rate of 100 μl/min. Approximately 15,000 response units (RU) of neutravidin was immobilized on all four surfaces via standard amine-coupling chemistry (GE Healthcare; catalog no. BR-1000-50) in HBS-P buffer (10 mM HEPES, pH 7.4, 150 mM NaCl, 0.005% P20). Biotinylated protein was injected over separate flow cells to achieve capture levels ranging between 6,000 and 14,000 response units. Any remaining free sites on neutravidin were blocked with two 5-min pulses of 50 μM EZ-Link-Amine-PEG2-Biotin (ThermoScientific; catalog no. 21346) at a flow rate of 30 μl/min. […] Wortmannin was injected on a separate sensor chip at a concentration of 2 μM for an 8-min association phase and a 1-hour dissociation phase. At the end of each injection cycle, the injection needle and tubing were washed with 50% DMSO using the “extra wash” command. A five-point DMSO concentration series (ranging from 0.8% to 1.2% DMSO) was included to generate a calibration curve to correct for excluded volume effects. Sensorgrams were double-referenced and corrected for solvent effects using Scrubber 2.0c software (Biologic Software, Campbell, Australia) but fitted using both Scrubber and CLAMP software ([23]).
The data were fitted using a mass transport model ([24], [25]). Three independent surfaces were globally fit for the association and dissociation rates ka and […], while floating the maximum binding response (Rmax) and mass transport (kt) constant for each surface. […] For wortmannin, only an off-rate analysis was performed.

[1] = test system: broad panel of 351 kinases and 44 mutant kinases; experiment: KINOMEscan kinase panel; type: binding; settings: 10 μM idelalisib
Protocol: The enzymatic activity of the class I PI3K isoforms was measured using a time-resolved FRET assay that monitors formation of the product PIP3, because it competes with fluorescently labeled PIP3 for binding to the GRP-1 pleckstrin homology domain protein. An increase in PIP3 product results in a decrease in time-resolved FRET signal as the labeled fluorophore is displaced from the GRP-1. […] After an assay reaction time of 30 min at 25 °C, reactions were terminated with a final concentration of 10 mM EDTA, 10 nM labeled PIP3, and 35 nM europium-labeled GRP-1 detector protein before reading time-resolved FRET on an Envision plate reader (excitation, 340 nm; emission, 615/665 nm; delay, 100 μs; and read window, 500 μs). […] All IC50 values represent geometric mean values of a minimum of four determinations. These assays generally produced results within 3-fold of the reported mean.

[2] = target: PI3Kδ (murine p110δ-p85α) (Mus musculus, UniProt O35904); experiment: biochemical
PI3Kδ (murine p110δ-p85α), sequence (O35904 whole entry): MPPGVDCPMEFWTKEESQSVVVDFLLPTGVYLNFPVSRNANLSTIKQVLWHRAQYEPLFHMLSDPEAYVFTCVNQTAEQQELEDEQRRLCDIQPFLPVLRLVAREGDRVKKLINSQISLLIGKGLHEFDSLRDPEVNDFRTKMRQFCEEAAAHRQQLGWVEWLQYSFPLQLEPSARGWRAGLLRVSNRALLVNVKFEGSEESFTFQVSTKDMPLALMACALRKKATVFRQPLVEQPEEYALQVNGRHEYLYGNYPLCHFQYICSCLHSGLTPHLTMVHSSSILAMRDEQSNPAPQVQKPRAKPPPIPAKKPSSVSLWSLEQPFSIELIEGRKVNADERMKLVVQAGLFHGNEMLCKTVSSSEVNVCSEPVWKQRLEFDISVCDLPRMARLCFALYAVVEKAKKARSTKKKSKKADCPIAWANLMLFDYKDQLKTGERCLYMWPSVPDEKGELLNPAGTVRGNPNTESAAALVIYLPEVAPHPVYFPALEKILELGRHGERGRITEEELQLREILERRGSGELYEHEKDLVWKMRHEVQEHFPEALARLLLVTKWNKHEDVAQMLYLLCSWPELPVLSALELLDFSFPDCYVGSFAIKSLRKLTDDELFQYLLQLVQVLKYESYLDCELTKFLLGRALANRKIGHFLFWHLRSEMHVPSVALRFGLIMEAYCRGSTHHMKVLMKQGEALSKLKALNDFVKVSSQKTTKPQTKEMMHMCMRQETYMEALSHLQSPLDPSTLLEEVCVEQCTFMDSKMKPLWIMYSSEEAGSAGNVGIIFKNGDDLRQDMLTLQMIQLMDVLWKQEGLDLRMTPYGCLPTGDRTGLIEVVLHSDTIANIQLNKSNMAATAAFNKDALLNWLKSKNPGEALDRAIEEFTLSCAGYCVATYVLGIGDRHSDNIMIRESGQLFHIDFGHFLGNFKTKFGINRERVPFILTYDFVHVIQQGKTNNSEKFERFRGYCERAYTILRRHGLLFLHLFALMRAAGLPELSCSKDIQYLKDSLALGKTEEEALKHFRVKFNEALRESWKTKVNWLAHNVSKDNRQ
PI3Kδ (murine p110δ-p85α), sequence (P27986 whole entry partner): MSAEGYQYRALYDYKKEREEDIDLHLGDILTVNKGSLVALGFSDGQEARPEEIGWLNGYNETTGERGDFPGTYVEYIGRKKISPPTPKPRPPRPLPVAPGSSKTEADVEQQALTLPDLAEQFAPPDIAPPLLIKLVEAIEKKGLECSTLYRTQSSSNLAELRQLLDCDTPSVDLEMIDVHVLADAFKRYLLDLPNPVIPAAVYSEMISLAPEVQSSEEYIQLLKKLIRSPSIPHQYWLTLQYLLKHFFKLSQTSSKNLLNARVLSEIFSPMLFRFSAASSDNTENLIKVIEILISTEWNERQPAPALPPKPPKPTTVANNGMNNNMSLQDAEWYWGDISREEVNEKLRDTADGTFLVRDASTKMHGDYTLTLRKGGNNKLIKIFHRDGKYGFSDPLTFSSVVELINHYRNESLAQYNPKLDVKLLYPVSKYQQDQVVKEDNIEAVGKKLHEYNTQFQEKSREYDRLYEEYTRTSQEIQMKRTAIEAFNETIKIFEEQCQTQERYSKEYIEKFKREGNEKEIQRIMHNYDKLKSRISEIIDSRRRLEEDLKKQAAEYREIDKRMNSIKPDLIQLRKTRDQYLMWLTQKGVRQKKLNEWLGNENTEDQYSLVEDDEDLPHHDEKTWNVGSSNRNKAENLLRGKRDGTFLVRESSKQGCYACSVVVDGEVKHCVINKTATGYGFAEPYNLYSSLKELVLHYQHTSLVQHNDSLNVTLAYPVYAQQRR
Source text: All IC50 values represent geometric mean values of a minimum of four determinations.

[3] = target: recombinant PI3Kδ (p110δ-p85α) (Mus musculus, UniProt O35904); experiment: Competition of idelalisib with ATP (HTRF kinetic assay); type: biochemical, murine
recombinant PI3Kδ (p110δ-p85α), sequence (O35904 whole entry): as the sequence (O35904 whole entry) above
recombinant PI3Kδ (p110δ-p85α), sequence (P27986 whole entry partner): as the sequence (P27986 whole entry partner) above
Protocol: After a 1-h preincubation period, PIP2 was added to a final concentration of 10 μM, and ATP was added at concentrations from 0 to 1.5 mM to initiate the reaction. After 45 min, the reactions were quenched with a stop solution from the assay kit. A detection solution was then added to each well, and the mixture was further incubated for 2 h. Time-resolved fluorescence was measured with a Tecan Infinite M1000 plate reader, using an excitation wavelength of 330 nm and emission wavelengths of 620 and 665 nm. The ratio of emission at 665 nm to that at 620 nm was used as the measure of reaction rate. […] Values of α ≫ 1 are indicative of competitive inhibition, values of α approximately equal to 1 imply noncompetitive inhibition, and values of α ≪ 1 are characteristic of uncompetitive inhibitors ([22]).

[4] = biotinylated p110δ captured on neutravidin, mass transport model, global fit

PI3Kδ-p85α, sequence (O35904 whole entry): as the sequence (O35904 whole entry) above
PI3Kδ-p85α, sequence (P27986 whole entry partner): as the sequence (P27986 whole entry partner) above

| SMILES | recovery of enzyme activity following 1:100 dilution of the enzyme-inhibitor complex (PI3Kδ-p85α) | dissociation from the protein during the dissociation phase (ΔABD-p110δ) | most potent percent inhibition seen for any non-PI3K kinase [1] | IC50 [2] | Ki ([3]; read-out: Ki (inhibition constant)) | mode of inhibition (parameter α of the global fit) ([3]; α ≫ 1) | off rate kd (ΔABD-p110δ; [4]) | on rate ka (ΔABD-p110δ; [4]) |
| --- | --- | --- | --- | --- | --- | --- | --- | --- |
| COC[C@H]1OC(=O)c2coc3c2[C@@]1(C)C1=C(C3=O)[C@@H]2CCC(=O)[C@@]2(C)C[C@H]1OC(C)=O [wortmannin] | did not show detectable recovery of activity upon dilution | no dissociation after 1 h |  |  |  |  |  |  |
| CC[C@H](Nc1ncnc2[nH]cnc12)c1nc2cccc(F)c2c(=O)n1-c1ccccc1 [Idelalisib, 5-fluoro-3-phenyl-2-[(1S)-1-(9H-purin-6-ylamino)propyl]quinazolin-4(3H)-one] | enzyme activity was quickly recovered | complete dissociation | 47% | 19 nM | 1.5 ± 0.1 nM | ATP-competitive inhibition | 0.00634 s⁻¹ | 5.18e+06 M⁻¹ s⁻¹ |
